Substitutions are numbered along the chain they refer to. Where “and” joins values, the source holds several entries; their conditions need not be identical. Identical values can stand only once.
Assays:
[1] = system: isogenic Pip4K2b^−/− cells; assay: Lysotracker staining of serum-starved MEFs (lysosomal acidification); assay type: cell-based, mouse; settings: 10 μM MPA or 20 μM Link17
[2] = system: WT-PI5P4Kβ-expressing Pip4K2b^−/− cells; assay: as above; assay type: cell-based, mouse
PI5P4Kβ [3] = target: T1, PI5P4Kβ (Homo sapiens, UniProt P78356); assay: NMR-based PNT hydrolysis assay; assay type: biochemical; settings: WT PI5P4Kβ
T1 sequence (P78356 1-416): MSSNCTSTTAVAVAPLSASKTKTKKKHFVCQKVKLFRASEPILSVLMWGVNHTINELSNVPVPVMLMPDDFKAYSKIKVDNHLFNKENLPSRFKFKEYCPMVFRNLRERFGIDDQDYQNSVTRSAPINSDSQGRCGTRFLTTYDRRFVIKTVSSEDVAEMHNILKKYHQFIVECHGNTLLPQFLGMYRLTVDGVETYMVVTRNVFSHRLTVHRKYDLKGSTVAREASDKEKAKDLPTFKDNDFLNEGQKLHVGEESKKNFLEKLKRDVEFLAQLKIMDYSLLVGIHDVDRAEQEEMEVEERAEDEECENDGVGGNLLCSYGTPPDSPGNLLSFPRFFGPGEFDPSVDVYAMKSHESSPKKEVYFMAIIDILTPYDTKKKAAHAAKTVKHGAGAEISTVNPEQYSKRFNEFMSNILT
Method: (A) The PNT hydrolysis activity of PI5P4Kβ. indicative of the kinase activity of PI5P4Kβ. was assessed by the signal intensity ratios of diphosphorylated/triphosphorylated nucleotides after the reaction. The average values from three experiments are shown with error bars (SD). Highly hydrolyzed nucleotides (>0.1 of the ratios) were shown for GTP, ITP, XTP, 6-thio-GTP, and 2a-ATP. (B), (C), and (D) show interactions of the PI5P4Kβ-ITP, PI5P4Kβ-XTP, and PI5P4Kβ-2a-ATP complexes, respectively. Dotted lines represent hydrogen bonds between the PNTs and PI5P4Kβ.
(§1) Next, the mechanism of the GTP preference of PI5P4Kβ was investigated using a series of ATP and GTP analogs. Based on analysis of the GTP-PI5P4Kβ interaction (FIG. 10(B)), 10 PNTs with different configurations at the 2nd and 6th positions of the purine base (NH2(2) and O(6) in guanine base, respectively) were chosen (FIG. 10(A)). The hydrolysis activities of PI5P4Kβ for these PNTs were quantified by an NMR-based assay (data not shown). […] On the other hand, O(6) seems to be required for the activity. […] This view is also supported by the larger energetic contribution of the O(6) moiety compared to the NH2(2) moiety in the FMO interaction analysis between GTP and PI5P4Kβ (FIG. 15).

PI5P4Kβ [4] = target: T1, PI5P4Kβ; assay: Competition assay of 32P-GTP-dependent PI(5)P phosphorylation by cold PNTs; assay type: biochemical; settings: 250 μM 32P-GTP, 3.2-400 μM cold PNT
Method: (A) The kinase reaction was carried out in a total of 50 μl of reaction buffer (50 mM HEPES (pH 7.4), 0.2 mM EGTA, and 10 mM MgCl2) containing 20 μM of PI(5)P (d-myo-phosphatidylinositol 5-phosphate diC16) that was suspended by sonication. 250 μM of γ-^32P radiolabeled GTP was incubated with 1 μg of recombinant PI5P4Kβ for 10 min at room temperature. 20 μM of PI(5)P was used with 3 μM 1,2-dipalmitoyl-phosphatidylserine as the basal lipid. Phosphoinositides were extracted by a methanol/chloroform (1/1, v/v) mix and subjected to a thin-layer chromatography (TLC) assay using heat-activated 2% […] silica gel 60 plates. The solvent was 1-propanol/2 M acetic acid (65/35, v/v). In competition assay, 250 μM of ^32P-labeled GTP was mixed with 3.2-400 μM triphosphorylated nucleotides, and the PI(5)P phosphorylation by GTP was monitored by quantifying the amount of radiolabeled PI(4,5)P2. (B) Relative kinase activities in the presence of each PNT against those without them (i.e., only ^32P-GTP condition) are shown.
as §1

PI5P4KβN203D = target: T2, PI5P4KβN203D (Homo sapiens, UniProt P78356, N203D); assay: PNT hydrolysis activity of mutant PI5P4Kβ; assay type: biochemical
T2 sequence (P78356 1-416 N203D): T1 sequence (P78356 1-416) with N203D
Method: (§2) (A)-(C) show PNT hydrolysis activity of mutant PI5P4Kβ as compared to the WT. The ratios of dephosphorylated/triphosphorylated nucleotides after reaction are shown. The N203A activity is almost negligible.
(§3) In addition, the hydrolysis activity of the mutants on four active triphosphorylated nucleotides were analyzed, XTP, ITP, 6-thio-GTP, and 2a-ATP. […] In the crystal structure of the PI5P4KβN203D-ITP complex, ITP binds in a similar manner as the WT.

PI5P4KβF205L [5] = target: T3, PI5P4KβF205L (Homo sapiens, UniProt P78356, F205L); assay: PNT hydrolysis activity of mutant PI5P4Kβ; assay type: biochemical
T3 sequence (P78356 1-416 F205L): T1 sequence (P78356 1-416) with F205L
Method: as §2, §3

PI5P4KβF205L [6] = target: T3, PI5P4KβF205L; settings: F205L mutant; partly reported in Sumita et al., 2016; cited from earlier work
PI5P4KβT201M [7] = target: T4, PI5P4KβT201M (Homo sapiens, UniProt P78356, T201M); settings: T201M mutant; partly reported in Sumita et al., 2016; cited from earlier work
T4 sequence (P78356 1-416 T201M): T1 sequence (P78356 1-416) with T201M

[8] = system: PI5P4Kβ with mutation of Asn-203; assay: Nucleotide binding of Asn-203 mutant PI5P4Kβ
Method: The functional role of Asn-203 was analyzed, because this is the only invariant residue in the base-recognition loop of PI4P5K and PI5P4K.

PI5P4KβT201M [9] = target: T4, PI5P4KβT201M; assay: PNT hydrolysis activity of mutant PI5P4Kβ; assay type: biochemical
PI5P4Kβ [10] = target: T1, PI5P4Kβ; settings: KM for GTP; cited from earlier work
[11] = system: WT PI5P4Kβ-reconstituted Pip4k2b^−/− cells; assay: Nigericin-induced vacuolization; assay type: cell-based, mouse; settings: within 4h after nigericin treatment
Method: (§4) Next, treatment with microbial toxin nigericin, a selective K^+/H^+ exchanger that is activated in the lysosome and induces lysosome rupture and following cell death, was assessed. […] The autophagic flux in MEF, 293T, and HCT116 cells was decreased by Link17 treated cells (FIG. 7(A),(B)). In the isogenic MEFs, autophagy was decreased in Pip4k2b^−/− and F205L cells, compared to WT cells (FIG. 7(C)).

Pip4k2b^−/− cells = assay: Nigericin-induced vacuolization; assay type: cell-based, mouse; settings: within 4h after nigericin treatment
Method: (D) is a graph showing cytotoxic death by nigericin was suppressed in Pip4K2b^−/− cells and F205L-PI5P4Kβ-expressing Pip4K2b−/− cells.
as §4

[12] = system: WT PI5P4Kβ-reconstituted Pip4k2b^−/− cells; assay: Cell viability after nigericin treatment; assay type: cell-based, mouse
Method: as §4

Compound | hydrolysis activity of PI5P4Kβ (in words) (PI5P4Kβ [3]) | inhibition of GTP-dependent PI(5)P phosphorylation activity (PI5P4Kβ [4]) | hydrolysis activity compared to WT (PI5P4KβN203D) | hydrolysis activity compared to WT (PI5P4KβF205L [5]) | also measured
COc1c(C)c2c(c(O)c1C/C=C(\C)CCC(=O)O)C(=O)OC2 [MPA, mycophenolic acid] |  |  |  |  | lysosomal acidification (lysotracker staining) [1]: not; lysosomal acidification (lysotracker staining) ([2]; 10 μM MPA or 20 μM Link17): suppressed lysosomal acidification; lysosomal acidification (lysotracker staining) ([2]; 10 μM MPA or 20 μM Link17, listed as mycophenolic acid): had a deacidification effect
O=P(O)(O)OP(=O)(O)OP(=O)(O)OC[C@H]1O[C@@H](n2cnc3c(O)ncnc32)[C@H](O)[C@@H]1O [ITP, inosine triphosphate] | substantial activity | strongly inhibited | hyperactive | less active | hydrolysis activity compared to GTP (PI5P4Kβ [3]): 1.3 times
O=c1[nH]c(=O)c2ncn([C@@H]3O[C@H](COP(=O)(O)OP(=O)(O)OP(=O)(O)O)[C@@H](O)[C@H]3O)c2[nH]1 [XTP, xanthosine triphosphate] | substantial activity | strongly inhibited | significantly reduced | diminished susceptibility | hydrolysis activity compared to GTP (PI5P4Kβ [3]): 1.9 times
Nc1ncnc2c1ncn2[C@@H]1O[C@H](COP(=O)(O)OP(=O)(O)OP(=O)(O)O)[C@@H](O)[C@H]1O [ATP] |  |  | significantly reduced | not affected | nucleotide-dependent kinase activity (PI5P4KβF205L [6]): comparable to that of WT PI5P4Kβ; nucleotide-dependent kinase activity (PI5P4KβT201M [7]): higher ATP-dependent activity; binding of nucleotide [8]: markedly reduced the binding; hydrolysis activity compared to WT (PI5P4KβT201M [9]): more active
Nc1nc(Cl)c2ncn(C3OC(COP(=O)(O)OP(=O)(O)OP(=O)(O)O)C(O)C3O)c2n1 (stereo not shown) [2a-6C1-PTP] | very low hydrolysis activity |  |  |  | 
COc1nc(N)nc2c1ncn2[C@@H]1O[C@H](COP(=O)(O)OP(=O)(O)OP(=O)(O)O)[C@@H](O)[C@H]1O [O6-me-GTP] | very low hydrolysis activity |  |  |  | 
Nc1nc(N)c2ncn([C@@H]3O[C@H](COP(=O)(O)OP(=O)(O)OP(=O)(O)O)[C@@H](O)[C@H]3O)c2n1 [2a-ATP] | substantial activity |  | significantly reduced | not affected | hydrolysis activity compared to WT (PI5P4KβT201M [9]): more active
Nc1nc2c(ncn2[C@@H]2O[C@H](COP(=O)(O)OP(=O)(O)OP(=O)(O)O)[C@@H](O)[C@H]2O)c(=O)[nH]1 [GTP, guanosine triphosphate] |  |  | significantly reduced | less active | Km (PI5P4Kβ [10]): ~100 µM and ~88 µM; nucleotide-dependent kinase activity (PI5P4KβF205L [6]): reduction of the GTP-dependent activity; nucleotide-dependent kinase activity (PI5P4KβT201M [7]): decreased GTP-dependent kinase activity; binding of nucleotide [8]: markedly reduced the binding
CO[C@@H]1C[C@@H](C[C@H]2CC[C@H](C)[C@H]([C@@H](C)C(=O)O)O2)O[C@]2(O[C@](C)([C@H]3CC[C@@](C)([C@@H]4O[C@@H]([C@H]5O[C@@](O)(CO)[C@H](C)C[C@@H]5C)C[C@@H]4C)O3)C[C@H]2C)[C@@H]1C [nigericin] |  |  |  |  | hypervacuolization after nigericin treatment [11]: hypervacuolization was observed; hypervacuolization after nigericin treatment (Pip4k2b^−/− cells): not; cell viability [12]: decreased cell viability
Nc1nc(=S)c2ncn([C@@H]3O[C@H](COP(=O)(O)OP(=O)(O)OP(=O)(O)O)[C@H](O)C3O)c2[nH]1 (stereo partly shown) [6-thio-GTP] | substantial activity | strongly inhibited |  | less active | 

Source: patent US20230096781A1, “METHODS OF CONTROLLING BODYWEIGHT BY MODULATING PHOSPHATIDYLINOSITOL 5-PHOSPHATE 4-KINASE BETA ACTIVITY” (University of Cincinnati, priority 2020, published 2023)
